Earlier results, collected in US8497371B2, “Pipemidic acid derivative autotaxin inhibitors” (University of Memphis Research Foundation, priority 2009, dated 2013).

Legend:
melanoma metastasis = settings: micromolar concentrations; cited from earlier work
ATX = ATX (Homo sapiens, UniProt Q13822); design: conditioned serum-free medium (CCM) from MDA-MB-435 cells as the source of ATX; endogenous in cells; host or cells: MDA-MB-435 cells (about 10x concentrated serum-free conditioned medium); settings: cited from earlier work

## O=[As](O)(O)c1ccc(Cc2ccc([As](=O)(O)O)cc2)cc1 [NSC 48300]
Melanoma metastasis
  inhibition of melanoma metastasis: ~100%
ATX
  mechanism of inhibition (reported): competitive
